Experimental data taken from patent US20120071475A1, “UREA DERIVATIVES HAVING PI3K-INHIBITING ACTIVITY” (SHIONOGI & CO., LTD., priority 2009, published 2012).

How the values were obtained:
CYP3A4 = target: T1, CYP3A4 (Homo sapiens, UniProt P08684); experiment: CYP3A4 fluorescence MBI test; format: in vitro ADME; settings: difference in IC50 with 0 or 30 minutes pre-reaction; CYP3A4 expressed in E. coli, substrate 7-BFC
T1 construct: host or cells: E. coli
Summary of the method: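 E. coli-expressed CYP3A4 debenzylating 5.6 μmol/L 7-BFC to fluorescent 7-HFC (Ex 420/Em 535 nm) in K-Pi pH 7.4 at 25° C, 15 min reaction. NADPH pre-incubation of 0 or 30 min, with 10-fold dilution before reaction. IC50 from 0.625–20 μmol/L (6 points); (+) for an IC50 shift ≥5 μmol/L, (−) for ≤3 μmol/L.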

[1] = BA test (oral absorbability, bioavailability); format: in vivo
Method: An experimental material and a method for examining oral absorbability
(1) Animals used: rats or mice were used. (2) Breeding condition: chow and sterilized tap water were allowed to be taken in freely. (3) Setting of a dosage and grouping: a predetermined dosage was administered orally or intravenously. Groups were formed as shown below. (A dosage varied depending on each compound)
Oral administration 1-30 mg/kg (n=2 to 3)
Intravenous administration 0.5-10 mg/kg (n=2 to 3)
(4) Preparation of administered liquid: In oral administration, a solution or suspension was administered. In intravenous administration, after solubilization, the administration was performed. (5) Method of Administration: In oral administration, compulsory administration to the stomach was conducted using an oral probe. In intravenous administration, administration from the caudal vein was conducted using a syringe with an injection needle. (6) Evaluation item: Blood was chronologically collected, and then the drug concentration in blood plasma was measured using a LC/MS/MS. (7) Statistical analysis: With regard to a shift in plasma concentration, the plasma concentration-time area under the curve (AUC) was calculated using a nonlinear least-squares program WinNonlin®. Bioavailability (BA) was calculated from the AUCs of the oral administration group and the intravenous administration group, respectively.

PI3Kγ = PI3Kγ (Homo sapiens, UniProt P48736); experiment: PI3Kγ inhibitory activity (PI3-kinase HTRF assay, inhibition ratio); format: biochemical; settings: 0.5 h, compound at 10 μmol/L; read-out: PI3Kg Inhibition Ratio % (10 μM)
Sequence of PI3Kγ (P48736 whole entry, species assumed): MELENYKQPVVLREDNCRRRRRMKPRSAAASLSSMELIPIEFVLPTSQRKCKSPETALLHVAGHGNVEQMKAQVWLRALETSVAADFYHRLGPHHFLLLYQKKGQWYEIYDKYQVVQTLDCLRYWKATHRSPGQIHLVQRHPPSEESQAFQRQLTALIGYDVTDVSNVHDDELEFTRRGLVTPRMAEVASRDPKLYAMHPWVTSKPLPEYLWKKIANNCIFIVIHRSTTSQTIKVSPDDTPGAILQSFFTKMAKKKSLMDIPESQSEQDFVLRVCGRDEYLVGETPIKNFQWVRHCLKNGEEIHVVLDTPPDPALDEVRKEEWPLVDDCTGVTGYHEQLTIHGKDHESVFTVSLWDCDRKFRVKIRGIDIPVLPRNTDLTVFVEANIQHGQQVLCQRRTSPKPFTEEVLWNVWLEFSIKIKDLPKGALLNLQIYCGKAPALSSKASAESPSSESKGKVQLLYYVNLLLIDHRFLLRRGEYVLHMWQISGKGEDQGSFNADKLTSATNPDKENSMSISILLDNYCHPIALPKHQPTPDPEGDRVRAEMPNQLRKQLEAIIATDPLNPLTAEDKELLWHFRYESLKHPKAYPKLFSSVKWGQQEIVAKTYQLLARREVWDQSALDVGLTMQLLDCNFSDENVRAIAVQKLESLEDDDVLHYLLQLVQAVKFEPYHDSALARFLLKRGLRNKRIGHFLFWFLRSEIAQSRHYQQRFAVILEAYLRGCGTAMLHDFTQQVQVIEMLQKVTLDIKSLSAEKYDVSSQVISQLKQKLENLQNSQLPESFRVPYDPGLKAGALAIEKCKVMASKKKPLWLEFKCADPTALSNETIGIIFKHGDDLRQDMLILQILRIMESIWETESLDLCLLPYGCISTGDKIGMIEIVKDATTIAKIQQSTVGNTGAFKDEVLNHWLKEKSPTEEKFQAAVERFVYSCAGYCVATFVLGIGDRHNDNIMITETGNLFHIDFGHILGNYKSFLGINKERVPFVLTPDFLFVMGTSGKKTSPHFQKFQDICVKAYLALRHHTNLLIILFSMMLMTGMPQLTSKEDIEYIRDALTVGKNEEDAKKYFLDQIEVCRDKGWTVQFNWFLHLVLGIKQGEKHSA
Summary of the method: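 Compound at 10 μmol/L preincubated 10 min with PI3Kγ and PIP2 substrate, then reacted with ATP for 30 minutes at room temperature; the compound, substrate and ATP figures as printed (40 μmol/L each) are solution concentrations. HTRF 665/620 nm ratio read after 18 hours. Inhibition ratio calculated against no-compound (100%) and no-enzyme (0%) controls.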

AKT phosphorylation = AKT phosphorylation inhibitory activity in MCP-1 stimulated THP-1 cells (sandwich ELISA); format: cell-based, Human; settings: Homo sapiens, compound at 1 μmol/L, MCP-1 stimulation, read-out: AKT phosphorylation inhibition ratio
Summary of the method: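 THP-1 cells (6.7×10^6/mL in HBSS) were preincubated with compound at 1 μmol/L for 5 min at 37 °C, then stimulated for 60 s with HBSS containing 1.2 μg/mL MCP-1 and lysed. Phospho-Akt Ser473/AKT1 sandwich ELISA was read at A450. % inhibition: no compound = 100% activity, no MCP-1 = 0%.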

[2] = Metabolic stability test (pooled human liver microsome); format: in vitro ADME; settings: percentage of test compound remained after 30 minutes, pooled human liver microsome 0.5 mg protein/mL, 1 mmol/L NADPH, 37° C., compound 0.5 μM
Summary of the method: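 Pooled human liver microsomes (0.5 mg protein/mL) incubated with compound and 1 mmol/L NADPH at 37° C. in pH 7.4 Tris buffer for 0 or 30 min. Parent quantified by LC/MS/MS after methanol/acetonitrile quench; value is % remaining at 30 min versus 0 min.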

[3] = target: T2, human ether-a-go-go related gene (hERG) channel (Homo sapiens, UniProt Q12809); experiment: hERG test (whole-cell patch-clamp, IKr in HEK293 cells); format: cell-based; settings: inhibition of maximum tail current (IKr), HEK293 cell expressing hERG, compound 1 μM, 10 minutes; 1 µM
T2 construct: expressed in transfected cells; host or cells: HEK293
T2 sequence (Q12809 whole entry): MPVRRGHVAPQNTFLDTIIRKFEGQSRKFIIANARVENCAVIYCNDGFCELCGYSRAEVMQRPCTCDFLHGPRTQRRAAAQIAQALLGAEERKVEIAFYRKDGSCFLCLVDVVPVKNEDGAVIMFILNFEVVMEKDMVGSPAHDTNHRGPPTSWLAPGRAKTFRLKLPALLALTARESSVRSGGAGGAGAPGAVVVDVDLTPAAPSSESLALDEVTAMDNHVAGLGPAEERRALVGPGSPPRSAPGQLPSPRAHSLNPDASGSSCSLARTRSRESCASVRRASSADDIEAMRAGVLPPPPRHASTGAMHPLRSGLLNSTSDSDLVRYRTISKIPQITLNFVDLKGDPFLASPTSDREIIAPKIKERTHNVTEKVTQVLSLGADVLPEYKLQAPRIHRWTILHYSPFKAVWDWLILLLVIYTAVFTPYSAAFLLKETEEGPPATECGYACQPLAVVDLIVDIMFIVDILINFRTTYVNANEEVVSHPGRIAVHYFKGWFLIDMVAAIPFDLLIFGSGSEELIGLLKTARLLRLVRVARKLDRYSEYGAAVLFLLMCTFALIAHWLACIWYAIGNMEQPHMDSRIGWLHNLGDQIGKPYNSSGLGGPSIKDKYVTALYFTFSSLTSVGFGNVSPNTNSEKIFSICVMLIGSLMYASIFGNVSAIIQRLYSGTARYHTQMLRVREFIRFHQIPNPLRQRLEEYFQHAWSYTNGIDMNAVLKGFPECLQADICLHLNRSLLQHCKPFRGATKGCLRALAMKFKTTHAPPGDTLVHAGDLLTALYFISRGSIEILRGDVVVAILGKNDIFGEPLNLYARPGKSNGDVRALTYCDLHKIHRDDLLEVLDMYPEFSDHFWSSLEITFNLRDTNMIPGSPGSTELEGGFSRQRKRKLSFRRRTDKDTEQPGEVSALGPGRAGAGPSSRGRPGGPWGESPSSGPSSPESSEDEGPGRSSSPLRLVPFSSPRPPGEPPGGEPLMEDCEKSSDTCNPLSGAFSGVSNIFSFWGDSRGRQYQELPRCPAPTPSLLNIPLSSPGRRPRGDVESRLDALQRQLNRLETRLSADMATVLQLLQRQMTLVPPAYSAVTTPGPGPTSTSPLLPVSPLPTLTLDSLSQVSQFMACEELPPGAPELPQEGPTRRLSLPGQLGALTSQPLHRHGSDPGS
Summary of the method: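 hERG-expressing HEK293 cells, automated whole-cell patch clamp: hold −80 mV, +50 mV for 2 s, then −50 mV for 2 s to record IKr tail current. Compound in extracellular solution (pH 7.4) for 10 min at room temperature; inhibition of maximum tail current calculated versus pre-application and compared with 0.1% DMSO vehicle.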

T1 sequence (P08684 whole entry): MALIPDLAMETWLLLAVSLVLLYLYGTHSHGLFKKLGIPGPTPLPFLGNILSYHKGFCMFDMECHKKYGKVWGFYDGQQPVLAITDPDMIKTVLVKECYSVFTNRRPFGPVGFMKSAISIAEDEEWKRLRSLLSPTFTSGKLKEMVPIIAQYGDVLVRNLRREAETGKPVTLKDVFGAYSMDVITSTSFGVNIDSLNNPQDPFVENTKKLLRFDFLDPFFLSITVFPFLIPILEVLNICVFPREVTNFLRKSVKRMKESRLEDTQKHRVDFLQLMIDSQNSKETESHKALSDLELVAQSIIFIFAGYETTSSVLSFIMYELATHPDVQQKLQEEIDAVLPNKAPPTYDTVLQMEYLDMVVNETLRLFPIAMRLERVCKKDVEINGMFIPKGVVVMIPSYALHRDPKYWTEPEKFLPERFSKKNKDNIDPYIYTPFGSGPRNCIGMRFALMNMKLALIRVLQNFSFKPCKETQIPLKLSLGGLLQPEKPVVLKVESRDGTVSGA

Structure (SMILES)	MBI (CYP3A4)	BA (Rat, 1 mg/kg, Methylcellulose suspension Oral Administration) [1]	inhibition at 10 µM (PI3Kγ)	inhibition at 1 µM (AKT phosphorylation)	hLMS_ox(at 0.5 μM) % [2]	hERG(at 1 μM) % Inhibition [3]
COc1cc(N2CCc3nc(NC(=O)Nc4ccccc4C(=O)NC(C)C)sc3C2)ccn1 [Compound I-52]	(−) (When 3 μmol/L or less, the compound is shown as (−))	40.9%	–	–	–	–
COc1cc(N2CCc3nc(NC(=O)Nc4ccccc4C(=O)NC(C)C(O)C(F)(F)F)sc3C2)nc(OC)n1 (stereo not drawn) [Compound I-138]	–	–	≥ 95%	≥ 95%	82.6%	2.8%
